Earlier results as cited in US7329690B2, “Effectiveness of invertebrate pest-control agents” (FMC Corporation, priority 2001, dated 2008).

For `O=[N+]([O-])NC1=NCCN1Cc1ccc(Cl)nc1` [imidacloprid], the water solubility is given as 610 ppm.
